Experimental data from ChEMBL document CHEMBL3885881, “DrugMatrix”.

Organism: Rattus norvegicus
Experiment: DrugMatrix - Regimen: Daily Repeat
Format: toxicity, organism-based, Sprague-Dawley
Parameters: regimen Daily Repeat, gender Male, age 6-8 weeks
Conditions: in vivo, po, 38 mg/kg, route oral GAVAGE, dose level Low, vehicle 100 % WATER; for BASOPHIL / EOSINOPHIL / ERYTHROCYTE COUNT / HEMATOCRIT / HEMOGLOBIN / LEUKOCYTE COUNT / LYMPHOCYTE / MEAN CORPUSCULAR HEMOGLOBIN / MEAN CORPUSCULAR HEMOGLOBIN CONCENTRATION / MEAN CORPUSCULAR VOLUME / MONOCYTE / NEUTROPHIL / PLATELET COUNT: tissue Blood; for ALANINE AMINOTRANSFERASE / ALBUMIN / ALKALINE PHOSPHATASE / ASPARTATE AMINOTRANSFERASE / BLOOD UREA NITROGEN / CARBON DIOXIDE / CHLORIDE / CHOLESTEROL / CREATINE PHOSPHOKINASE / CREATININE / GLUCOSE / LACTATE DEHYDROGENASE / LIPASE / PHOSPHORUS / POTASSIUM / SODIUM / TOTAL BILIRUBIN / TOTAL PROTEIN / URIC ACID: tissue Plasma

For `O=C(O)C1CC1` [CYCLOPROPANE CARBOXYLIC ACID], which BASOPHIL (72 h, time 3 day) is on record?
Its BASOPHIL is 0%.

And the EOSINOPHIL (72 h, time 3 day)?
The EOSINOPHIL was 0.67%.

What about the “ERYTHROCYTE COUNT” value (72 h, time 3 day) of the same compound?
Its value is 7.06 x10E6/uL.

And the HEMATOCRIT (72 h, time 3 day)?
The HEMATOCRIT was 43.67%.

And the HEMOGLOBIN (72 h, time 3 day)?
The HEMOGLOBIN was 14.6 G/DL.

And the “LEUKOCYTE COUNT” value (72 h, time 3 day)?
Its value is 8.63 x10E3/uL.

And the LYMPHOCYTE (72 h, time 3 day)?
Its LYMPHOCYTE is 83.67%.

And the “MEAN CORPUSCULAR HEMOGLOBIN” value (72 h, time 3 day)?
The value was 20.67 pg.

And the “MEAN CORPUSCULAR HEMOGLOBIN CONCENTRATION” value (72 h, time 3 day)?
Its value is 33.47 G/DL.

What about the “MEAN CORPUSCULAR VOLUME” value (72 h, time 3 day) of the same compound?
Its value is 61.77 fL.

What about the MONOCYTE (72 h, time 3 day) of the same compound?
Its MONOCYTE is 2.33%.

And the NEUTROPHIL (72 h, time 3 day)?
The NEUTROPHIL was 13.33%.

And the “PLATELET COUNT” value (72 h, time 3 day)?
The value was 1012 x10E3/uL.

And the “ALANINE AMINOTRANSFERASE” value (72 h, time 3 day)?
Its value is 44.67 u/L.

What about the ALBUMIN (72 h, time 3 day) of the same compound?
The ALBUMIN was 4.37 G/DL.

And the “ALKALINE PHOSPHATASE” value (72 h, time 3 day)?
Its value is 346.67 u/L.

And the “ASPARTATE AMINOTRANSFERASE” value (72 h, time 3 day)?
The value was 72.33 u/L.

What about the “BLOOD UREA NITROGEN” value (72 h, time 3 day) of the same compound?
The value was 15 mg/dL.

And the “CARBON DIOXIDE” value (72 h, time 3 day)?
Its value is 23 mmol/L.

And the CHLORIDE (72 h, time 3 day)?
The CHLORIDE was 103.67 MEQ/L.

What about the CHOLESTEROL (72 h, time 3 day) of the same compound?
The CHOLESTEROL was 65.67 mg/dL.

And the “CREATINE PHOSPHOKINASE” value (72 h, time 3 day)?
The value was 241.33 u/L.

And the CREATININE (72 h, time 3 day)?
The CREATININE was 0.3 mg/dL.

And the GLUCOSE (72 h, time 3 day)?
The GLUCOSE was 151 mg/dL.

And the “LACTATE DEHYDROGENASE” value (72 h, time 3 day)?
Its value is 152.33 u/L.

And the LIPASE (72 h, time 3 day)?
The LIPASE was 9 u/L.

And the PHOSPHORUS (72 h, time 3 day)?
The PHOSPHORUS was 9.83 mg/dL.

And the POTASSIUM (72 h, time 3 day)?
Its POTASSIUM is 5.7 MEQ/L.

What about the SODIUM (72 h, time 3 day) of the same compound?
The SODIUM was 145.67 MEQ/L.

And the “TOTAL BILIRUBIN” value (72 h, time 3 day)?
Its value is 0.1 mg/dL.

What about the “TOTAL PROTEIN” value (72 h, time 3 day) of the same compound?
The value was 6.03 G/DL.

And the “URIC ACID” value (72 h, time 3 day)?
The value was 1.1 mg/dL.

What about the BASOPHIL (120 h, time 5 day) of the same compound?
The BASOPHIL was 0.33%.

And the EOSINOPHIL (120 h, time 5 day)?
Its EOSINOPHIL is 1%.

What about the “ERYTHROCYTE COUNT” value (120 h, time 5 day) of the same compound?
The value was 7.12 x10E6/uL.

What about the HEMATOCRIT (120 h, time 5 day) of the same compound?
Its HEMATOCRIT is 44.63%.

And the HEMOGLOBIN (120 h, time 5 day)?
The HEMOGLOBIN was 14.4 G/DL.

What about the “LEUKOCYTE COUNT” value (120 h, time 5 day) of the same compound?
Its value is 10.9 x10E3/uL.

And the LYMPHOCYTE (120 h, time 5 day)?
The LYMPHOCYTE was 85%.

What about the “MEAN CORPUSCULAR HEMOGLOBIN” value (120 h, time 5 day) of the same compound?
The value was 20.2 pg.

What about the “MEAN CORPUSCULAR HEMOGLOBIN CONCENTRATION” value (120 h, time 5 day) of the same compound?
The value was 32.27 G/DL.

What about the “MEAN CORPUSCULAR VOLUME” value (120 h, time 5 day) of the same compound?
Its value is 62.67 fL.

And the MONOCYTE (120 h, time 5 day)?
The MONOCYTE was 2.33%.

And the NEUTROPHIL (120 h, time 5 day)?
The NEUTROPHIL was 12.33%.

And the “PLATELET COUNT” value (120 h, time 5 day)?
The value was 970.67 x10E3/uL.

And the “ALANINE AMINOTRANSFERASE” value (120 h, time 5 day)?
The value was 47.33 u/L.

What about the ALBUMIN (120 h, time 5 day) of the same compound?
Its ALBUMIN is 4.6 G/DL.

And the “ALKALINE PHOSPHATASE” value (120 h, time 5 day)?
Its value is 373.67 u/L.

And the “ASPARTATE AMINOTRANSFERASE” value (120 h, time 5 day)?
The value was 86 u/L.

And the “BLOOD UREA NITROGEN” value (120 h, time 5 day)?
Its value is 17.33 mg/dL.

And the “CARBON DIOXIDE” value (120 h, time 5 day)?
Its value is 20.67 mmol/L.

And the CHLORIDE (120 h, time 5 day)?
The CHLORIDE was 99.33 MEQ/L.

What about the CHOLESTEROL (120 h, time 5 day) of the same compound?
Its CHOLESTEROL is 73.67 mg/dL.

What about the “CREATINE PHOSPHOKINASE” value (120 h, time 5 day) of the same compound?
The value was 418 u/L.

And the CREATININE (120 h, time 5 day)?
The CREATININE was 0.3 mg/dL.

And the GLUCOSE (120 h, time 5 day)?
The GLUCOSE was 133.33 mg/dL.

And the “LACTATE DEHYDROGENASE” value (120 h, time 5 day)?
Its value is 454 u/L.

And the LIPASE (120 h, time 5 day)?
The LIPASE was 9 u/L.

And the PHOSPHORUS (120 h, time 5 day)?
Its PHOSPHORUS is 10.13 mg/dL.

What about the POTASSIUM (120 h, time 5 day) of the same compound?
Its POTASSIUM is 5.37 MEQ/L.

What about the SODIUM (120 h, time 5 day) of the same compound?
The SODIUM was 143.33 MEQ/L.

And the “TOTAL BILIRUBIN” value (120 h, time 5 day)?
The value was 0.1 mg/dL.

And the “TOTAL PROTEIN” value (120 h, time 5 day)?
Its value is 6.53 G/DL.

What about the “URIC ACID” value (120 h, time 5 day) of the same compound?
Its value is 1.03 mg/dL.
